Reference: patent US11851426B2, “Bicyclic amines as CDK2 inhibitors” (Incyte Corporation, priority 2019, dated 2023)

Target: CDK2/Cyclin E1 (Homo sapiens (Human), UniProt P24941)
Assay: CDK2/Cyclin E1 HTRF enzyme activity assay
Type: biochemical
Conditions: 1 mM ATP; CDK2/Cyclin E1 0.25 nM; 60 minutes at room temperature
Method in brief: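 Full-length GST-CDK2 co-expressed with FLAG-Cyclin E1 (baculovirus), 0.25 nM, reacted with 50 nM ULight-4E-BP1 (Thr37/46) peptide at 50 μM or 1 mM ATP in HEPES pH 7.5 buffer, 60 min, room temperature. EDTA plus Eu-anti-phospho-4E-BP1 antibody stopped the reaction; HTRF read after 1 h; IC50 from three- or four-parameter fits.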

Row | SMILES | IC50
1 | C[C@@H]1CN(S(C)(=O)=O)CC[C@@H]1Nc1nc2ccc(-c3cn[nH]c3)c(OC3CCC(F)(F)C3)n2n1 (stereo partly drawn) [Example 75, 5-((3,3-Difluorocyclopentyl)oxy)-N-((3R,4S)-3-methyl-1-(methylsulfonyl)piperidin-4-yl)-6-(1H-pyrazol-4-yl)-[1,2,4]triazolo[1,5-a]pyridin-2-amine] | ≤ 20 nM
2 | CS(=O)(=O)N1CCC(Nc2nc3ccc(-c4cn[nH]c4)c(OCC4CC4)n3n2)CC1 [Example 82, 5-(Cyclopropylmethoxy)-N-(1-(methylsulfonyl)piperidin-4-yl)-6-(1H-pyrazol-4-yl)-[1,2,4]triazolo[1,5-a]pyridin-2-amine] | ≤ 20 nM
3 | C[C@@H]1CN(S(=O)(=O)c2cnn(C)c2)CC[C@@H]1Nc1nc2cnc(-c3cn[nH]c3)c(OC3CCC3)n2n1 [Example 94, 5-Cyclobutoxy-N-((3R,4S)-3-methyl-1-((1-methyl-1H-pyrazol-4-yl)sulfonyl)piperidin-4-yl)-6-(1H-pyrazol-4-yl)-[1,2,4]triazolo[1,5-a]pyrazin-2-amine] | ≤ 20 nM
4 | CC(C)Oc1c(-c2cn[nH]c2)ccn2nc(N[C@H]3CCN(S(C)(=O)=O)C[C@H]3C)nc12 [Example 43, 8-isopropoxy-N-((3R,4S)-3-methyl-1-(methylsulfonyl)piperidin-4-yl)-7-(1H-pyrazol-4-yl)-[1,2,4]triazolo[1,5-a]pyridin-2-amine] | ≤ 20 nM
5 | CC(C)Oc1c(-c2cn[nH]c2)ncn2nc(N[C@H]3CCN(S(=O)(=O)CCCN4CCCC4)C[C@H]3C)nc12 [Example 59, 8-Isopropoxy-N-((3R,4S)-3-methyl-1-((3-(pyrrolidin-1-yl)propyl)sulfonyl)piperidin-4-yl)-7-(1H-pyrazol-4-yl)-[1,2,4]triazolo[1,5-c]pyrimidin-2-amine] | ≤ 20 nM
6 | C[C@@H]1CN(S(C)(=O)=O)CC[C@@H]1Nc1nc2cnc(-c3cn[nH]c3)c(N3CCCCC3)n2n1 [Example 125, N-((3R,4S)-3-Methyl-1-(methylsulfonyl)piperidin-4-yl)-5-(piperidin-1-yl)-6-(1H-pyrazol-4-yl)-[1,2,4]triazolo[1,5-a]pyrazin-2-amine] | ≤ 20 nM
7 | CCS(=O)(=O)N1CC[C@H](Nc2nc3ccc(-c4cn[nH]c4)c(OC(C)C)n3n2)[C@H](C)C1 [Example 96, N-((3R,4S)-1-(Ethylsulfonyl)-3-methylpiperidin-4-yl)-5-isopropoxy-6-(1H-pyrazol-4-yl)-[1,2,4]triazolo[1,5-a]pyridin-2-amine] | ≤ 20 nM
8 | C[C@@H]1CN(S(=O)(=O)c2cn(C)cn2)CC[C@@H]1Nc1nc2ccc(-c3cn[nH]c3)c(N3CCCCC3)n2n1 [Example 86, N-((3R,4S)-3-Methyl-1-((1-methyl-1H-imidazol-4-yl)sulfonyl)piperidin-4-yl)-5-(piperidin-1-yl)-6-(1H-pyrazol-4-yl)-[1,2,4]triazolo[1,5-a]pyridin-2-amine] | ≤ 20 nM
9 | CS(=O)(=O)N1CCC(Nc2nc3c(-c4ccc(F)cc4)c(-c4cn[nH]c4)ccn3n2)CC1 [Example 25, 8-(4-fluorophenyl)-N-(1-(methylsulfonyl)piperidin-4-yl)-7-(1H-pyrazol-4-yl)-[1,2,4]triazolo[1,5-a]pyridin-2-amine] | ≤ 20 nM
10 | CCCCOc1c(-c2cn[nH]c2)ncn2nc(NC3CCN(S(C)(=O)=O)CC3)nc12 [Example 47, 8-Butoxy-N-(1-(methylsulfonyl)piperidin-4-yl)-7-(1H-pyrazol-4-yl)-[1.2.4]triazolo[1,5-c]pyrimidin-2-amine] | ≤ 20 nM
11 | CCOc1c(-c2cn[nH]c2)ncn2nc(NC3CCN(S(C)(=O)=O)CC3)nc12 [Example 32, 8-Ethoxy-N-(1-(methylsulfonyl)piperidin-4-yl)-7-(1H-pyrazol-4-yl)-[1,2,4]triazolo[1,5-c]pyrimidin-2-amine] | ≤ 20 nM
12 | CC1CN(S(C)(=O)=O)CCC1Nc1nc2c(N3CCCCC3)c(-c3cn[nH]c3)ncn2n1 (centres unmarked) [Example 50, N-(3-Methyl-1-(methylsulfonyl)piperidin-4-yl)-8-(piperidin-1-yl)-7-(1H-pyrazol-4-yl)-[1,2,4]triazolo[1,5-c]pyrimidin-2-amine] | ≤ 20 nM
13 | CCN(CC)CCCS(=O)(=O)N1CC[C@H](Nc2nc3c(OC(C)C)c(-c4cn[nH]c4)ncn3n2)[C@H](C)C1 [Example 60, N-((3R,4S)-1-((3-(Diethylamino)propyl)sulfonyl)-3-methylpiperidin-4-yl)-8-isopropoxy-7-(1H-pyrazol-4-yl)-[1,2,4]triazolo[1,5-c]pyrimidin-2-amine] | ≤ 20 nM
14 | CCOc1c(-c2cn[nH]c2)ccn2nc(N[C@H]3CCN(S(=O)(=O)c4cnn(C)n4)C[C@H]3C)nc12 [Example 21, 8-ethoxy-N-((3R,4S)-3-methyl-1-((2-methyl-2H-1,2,3-triazol-4-yl)sulfonyl)piperidin-4-yl)-7-(1H-pyrazol-4-yl)-[1,2,4]triazolo[1,5-a]pyridin-2-amine] | ≤ 20 nM
15 | CC(C)Oc1c(-c2cn[nH]c2)ncn2nc(N[C@H]3CCN(S(=O)(=O)CCCN(C)C)C[C@H]3C)nc12 [Example 56, N-((3R,4S)-1-((3-(Dimethylamino)propyl)sulfonyl)-3-methylpiperidin-4-yl)-8-isopropoxy-7-(1H-pyrazol-4-yl)-[1,2,4]triazolo[1,5-c]pyrimidin-2-amine] | ≤ 20 nM
16 | CC(C)Oc1c(-c2cn[nH]c2)ncn2nc(N[C@H]3CCN(S(=O)(=O)CCN4CCCC4)C[C@H]3C)nc12 [Example 38, 8-isopropoxy-N-((3R,4S)-3-methyl-1-((2-(pyrrolidin-1-yl)ethyl)sulfonyl)piperidin-4-yl)-7-(1H-pyrazol-4-yl)-[1,2,4]triazolo[1,5-c]pyrimidin-2-amine] | ≤ 20 nM
17 | CC(C)COc1c(-c2cn[nH]c2)ccn2nc(NC3CCN(S(C)(=O)=O)CC3)nc12 [Example 3, 8-isobutoxy-N-(1-(methylsulfonyl)piperidin-4-yl)-7-(1H-pyrazol-4-yl)-[1,2,4]triazolo[1,5-a]pyridin-2-amine] | ≤ 20 nM
18 | CCCOc1c(-c2cn[nH]c2)ccc2nc(N[C@H]3CCN(S(C)(=O)=O)C[C@H]3C)nn12 [Example 71, N-((3R,4S)-3-Methyl-1-(methylsulfonyl)piperidin-4-yl)-5-propoxy-6-(1H-pyrazol-4-yl)-[1,2,4]triazolo[1,5-a]pyridin-2-amine] | ≤ 20 nM
19 | CC(C)Oc1c(-c2cn[nH]c2)ncn2nc(N[C@H]3CCN(S(=O)(=O)CCCCN4CCOCC4)C[C@H]3C)nc12 [Example 63, 8-Isopropoxy-N-((3R,4S)-3-methyl-1-((4-morpholinobutyl)sulfonyl)piperidin-4-yl)-7-(1H-pyrazol-4-yl)-[1,2,4]triazolo[1,5-c]pyrimidin-2-amine] | ≤ 20 nM
20 | CCOc1c(-c2cn[nH]c2)ccn2nc(N[C@H]3CCN(S(=O)(=O)c4cnn(C)c4)C[C@H]3C)nc12 [Example 20, 8-ethoxy-N-((3R,4S)-3-methyl-1-((1-methyl-1H-pyrazol-4-yl)sulfonyl)piperidin-4-yl)-7-(1H-pyrazol-4-yl)-[1,2,4]triazolo[1,5-a]pyridin-2-amine] | ≤ 20 nM
21 | CCCc1c(-c2cn[nH]c2)ccn2nc(NC3CCN(S(C)(=O)=O)CC3)nc12 [Example 37, N-(1-(methylsulfonyl)piperidin-4-yl)-8-propyl-7-(1H-pyrazol-4-yl)-[1.2.4]triazolo[1,5-a]pyridin-2-amine] | ≤ 20 nM
22 | [2H]C(C)(C)Oc1c(-c2cn[nH]c2)ncc2nc(NC3CCN(S(C)(=O)=O)CC3)nn12 [Example 142, N-(1-(Methylsulfonyl)piperidin-4-yl)-5-((propan-2-yl-2-d)oxy)-6-(1H-pyrazol-4-yl)-[1,2,4]triazolo[1,5-a]pyrazin-2-amine] | ≤ 20 nM
23 | CCOc1c(-c2cn[nH]c2)ncc2nc(NC3CCN(S(C)(=O)=O)CC3)nn12 [Example 122, 5-Ethoxy-N-(1-(methylsulfonyl)piperidin-4-yl)-6-(1H-pyrazol-4-yl)-[1,2,4]triazolo[1,5-a]pyrazin-2-amine] | ≤ 20 nM
24 | CS(=O)(=O)N1CCC(Nc2nc3cnc(-c4cn[nH]c4)c(OCC4(C(F)(F)F)CCC4)n3n2)CC1 [Example 120, N-(1-(Methylsulfonyl)piperidin-4-yl)-6-(1H-pyrazol-4-yl)-5-((1-(trifluoromethyl)cyclobutyl)methoxy)-[1,2,4]triazolo[1,5-a]pyrazin-2-amine] | ≤ 20 nM
25 | CS(=O)(=O)N1CCC(Nc2nc3cc(-c4cn[nH]c4)ccn3n2)CC1 [Example 1, N-(1-(methylsulfonyl)piperidin-4-yl)-7-(1H-pyrazol-4-yl)-[1.2.4]triazolo[1,5-a]pyridin-2-amine] | ≤ 20 nM
26 | C[C@@H]1CN(S(C)(=O)=O)CC[C@@H]1Nc1nc2ccc(-c3cn[nH]c3)c(OCC3CCC3)n2n1 [Example 76, 5-(Cyclobutylmethoxy)-N-((3R,4S)-3-methyl-1-(methylsulfonyl)piperidin-4-yl)-6-(1H-pyrazol-4-yl)-[1,2,4]triazolo[1,5-a]pyridin-2-amine] | ≤ 20 nM
27 | [2H]C([2H])([2H])C([2H])([2H])Oc1c(-c2cn[nH]c2)ccn2nc(N[C@H]3CCN(S(C)(=O)=O)C[C@H]3C)nc12 [Example 41, 8-(ethoxy-d5)-N-((3R,4S)-3-methyl-1-(methylsulfonyl)piperidin-4-yl)-7-(1H-pyrazol-4-yl)-[1,2,4]triazolo[1,5-a]pyridin-2-amine] | ≤ 20 nM
28 | CCSc1c(-c2cn[nH]c2)ncc2nc(NC3CCN(S(C)(=O)=O)CC3)nn12 [Example 123, 5-(Ethylthio)-N-(1-(methylsulfonyl)piperidin-4-yl)-6-(1H-pyrazol-4-yl)-[1,2,4]triazolo[1,5-a]pyrazin-2-amine] | ≤ 20 nM
29 | C[C@@H]1CN(S(C)(=O)=O)CC[C@@H]1Nc1nc2ccc(-c3cn[nH]c3)c(OC3CCC3)n2n1 [Example 69, 5-Cyclobutoxy-N-((3R,4S)-3-methyl-1-(methylsulfonyl)piperidin-4-yl)-6-(1H-pyrazol-4-yl)-[1,2,4]triazolo[1,5-a]pyridin-2-amine] | ≤ 20 nM
